Assays:
Test in all cases: relative viability (nuclei count vs DMSO), 5 days (fraction); higher = more cells survive
Everolimus + Foretinib = compound: CO[C@H]1C[C@@H]2CC[C@@H](C)[C@@](O)(O2)C(=O)C(=O)N2CCCC[C@H]2C(=O)O[C@H]([C@H](C)C[C@@H]2CC[C@@H](OCCO)[C@H](OC)C2)CC(=O)[C@H](C)/C=C(\C)[C@@H](O)[C@@H](OC)C(=O)[C@H](C)C[C@H](C)/C=C/C=C/C=C/1C [Everolimus] + COc1cc2c(Oc3ccc(NC(=O)C4(C(=O)Nc5ccc(F)cc5)CC4)cc3F)ccnc2cc1OCCCN1CCOCC1 [Foretinib] (partner 0.25 µM)
Method in brief: (§1)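 Nuclei were stained with Hoechst during a one-step fixation (final 0.05% Triton X-100, 1% formaldehyde, 1 ug/ml Hoechst) carried out 5 days after dosing, then counted on 4× images. The cells, lung cancer lines in 1536-well plates, had been dosed by pin tool the day after seeding with one drug alone or a fixed anchor-drug dose plus five library-drug doses (not always all listed) in √10 steps. Relative viability is the nuclei count in treated wells divided by that in vehicle wells, and each value is the median of duplicate plates.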

Everolimus + Olaparib = compound: CO[C@H]1C[C@@H]2CC[C@@H](C)[C@@](O)(O2)C(=O)C(=O)N2CCCC[C@H]2C(=O)O[C@H]([C@H](C)C[C@@H]2CC[C@@H](OCCO)[C@H](OC)C2)CC(=O)[C@H](C)/C=C(\C)[C@@H](O)[C@@H](OC)C(=O)[C@H](C)C[C@H](C)/C=C/C=C/C=C/1C [Everolimus] + O=C(c1cc(Cc2n[nH]c(=O)c3ccccc23)ccc1F)N1CCN(C(=O)C2CC2)CC1 [Olaparib] (partner 8 µM)
Method in brief: as §1

Everolimus + Alpelisib = compound: CO[C@H]1C[C@@H]2CC[C@@H](C)[C@@](O)(O2)C(=O)C(=O)N2CCCC[C@H]2C(=O)O[C@H]([C@H](C)C[C@@H]2CC[C@@H](OCCO)[C@H](OC)C2)CC(=O)[C@H](C)/C=C(\C)[C@@H](O)[C@@H](OC)C(=O)[C@H](C)C[C@H](C)/C=C/C=C/C=C/1C [Everolimus] + Cc1nc(NC(=O)N2CCC[C@H]2C(N)=O)sc1-c1ccnc(C(C)(C)C(F)(F)F)c1 [Alpelisib] (partner 2 µM)
Method in brief: as §1

Everolimus + Pemetrexed = compound: CO[C@H]1C[C@@H]2CC[C@@H](C)[C@@](O)(O2)C(=O)C(=O)N2CCCC[C@H]2C(=O)O[C@H]([C@H](C)C[C@@H]2CC[C@@H](OCCO)[C@H](OC)C2)CC(=O)[C@H](C)/C=C(\C)[C@@H](O)[C@@H](OC)C(=O)[C@H](C)C[C@H](C)/C=C/C=C/C=C/1C [Everolimus] + Nc1nc2[nH]cc(CCc3ccc(C(=O)N[C@@H](CCC(=O)O)C(=O)O)cc3)c2c(=O)[nH]1 [Pemetrexed] (partner 0.2 µM)
Method in brief: as §1

Cell Line	relative viability (Everolimus + Foretinib; first compound 0.01 µM)	relative viability (Everolimus + Foretinib; first compound 0.1 µM)	relative viability (Everolimus + Foretinib; first compound 0.3162 µM)	relative viability (Everolimus + Foretinib; first compound 1 µM)	relative viability (Everolimus + Olaparib; first compound 0.01 µM)	relative viability (Everolimus + Olaparib; first compound 0.03162 µM)	relative viability (Everolimus + Olaparib; first compound 0.1 µM)	relative viability (Everolimus + Olaparib; first compound 0.3162 µM)	relative viability (Everolimus + Olaparib; first compound 1 µM)	relative viability (Everolimus + Alpelisib; first compound 0.01 µM)	relative viability (Everolimus + Alpelisib; first compound 0.1 µM)	relative viability (Everolimus + Alpelisib; first compound 0.3162 µM)	relative viability (Everolimus + Alpelisib; first compound 1 µM)	relative viability (Everolimus + Pemetrexed; first compound 0.01 µM)	relative viability (Everolimus + Pemetrexed; first compound 0.03162 µM)	relative viability (Everolimus + Pemetrexed; first compound 0.1 µM)	relative viability (Everolimus + Pemetrexed; first compound 0.3162 µM)	relative viability (Everolimus + Pemetrexed; first compound 1 µM)	relative viability (Everolimus + Foretinib; first compound 0.03162 µM)	relative viability (Everolimus + Alpelisib; first compound 0.03162 µM)
NCI-H650	1.01	0.842	0.816	0.649	0.397	0.37	0.373	0.284	0.307	1.05	0.752	0.592	0.587	0.645	0.606	0.626	0.516	0.591		
NCI-H520	0.478	0.321	0.434	0.349	0.29	0.209	0.296	0.18	0.312	0.434	0.335	0.296	0.257	0.349	0.318	0.324	0.255	0.325	0.335	0.474
NCI-H661	0.876	0.738	0.73	0.664	0.672	0.64	0.576	0.593	0.491	0.438	0.35	0.383	0.309	0.805	0.763	0.863	0.793	0.664	0.702	0.345
LK-2	0.638	0.583	0.656	0.679	0.594	0.603	0.413	0.403	0.351	0.827	0.607	0.568	0.556	0.203	0.229	0.212	0.208	0.167		
NCI-H1993	0.554	0.667	0.628	0.627	0.584	0.364	0.499	0.529	0.558	0.674	0.602	0.627	0.672	0.516	0.457	0.482	0.508	0.547	0.592	0.654
NCI-H838	0.586	0.518	0.551	0.56	0.493	0.484	0.494	0.479	0.403	0.392	0.382	0.343	0.347	0.229	0.213	0.241	0.228	0.222	0.629	0.385
NCI-H1437	1.29	1.21	1.23	1.15	0.632	0.622	0.588	0.596	0.598	0.566	0.549	0.507	0.294	0.296	0.307	0.294	0.29	0.251	1.18	0.438
NCI-H2170	0.635	0.654	0.587	0.614	0.361	0.285	0.318	0.329	0.316	0.365	0.333	0.312	0.354	0.259	0.26	0.248	0.271	0.257	0.641	0.367
LCLC-103H	0.597	0.522	0.545	0.574	0.709	0.762	0.669	0.685	0.761	0.887	0.846	0.776	0.639	0.43	0.453	0.472	0.45	0.438	0.572	0.855
NCI-H441	0.972	0.726	0.833	0.659	0.517	0.598	0.489	0.657	0.484	0.515	0.582	0.564	0.461	0.275	0.276	0.269	0.262	0.286	0.863	0.575
SK-LU-1	0.41	0.449	0.432	0.469	0.423	0.378	0.301	0.389	0.362	0.46	0.565	0.555	0.661	0.607	0.683	0.688	0.74	0.681	0.438	0.471
BEN	0.336	0.277	0.323	0.35	0.671	0.472	0.505	0.512	0.59	0.545	0.319	0.436	0.344	0.552	0.458	0.501	0.521	0.618	0.268	0.399
LC-2-ad	0.741	0.703	0.674	0.693	0.861	0.972	0.817	0.84	0.864	0.752	0.754	0.737	0.818	0.275	0.301	0.286	0.291	0.253	0.659	0.885
COR-L23	0.942	0.871	0.97	0.959	0.321	0.346	0.334	0.282	0.352	0.492	0.482	0.505	0.567	0.196	0.194	0.189	0.193	0.186	0.993	0.476
RERF-LC-KJ	0.686	0.578	0.539	0.559	0.666	0.61	0.593	0.605	0.606	0.632	0.408	0.481	0.53	0.468	0.489	0.498	0.426	0.457	0.694	0.463
NCI-H1915	1.04	0.838	0.972	0.79	0.282	0.31	0.285	0.26	0.288	0.806	0.784	0.732	0.723	0.484	0.481	0.469	0.499	0.432	0.975	0.833
NCI-H596	0.435	0.512	0.442	0.477	0.642	0.475	0.618	0.515	0.506	0.386	0.347	0.382	0.37	0.454	0.46	0.471	0.433	0.443	0.494	0.297
NCI-H2009	0.961	0.826	1.04	0.936	0.601	0.456	0.364	0.492	0.446	0.763	0.791	0.846	0.906	0.986	0.98	0.927	0.848	0.771	1.04	0.741
NCI-H2126	0.97	0.892	0.772	0.73	0.714	0.583	0.502	0.602	0.603	0.509	0.435	0.473	0.458	0.531	0.522	0.497	0.561	0.535	0.925	0.466
LXF-289	1.03	0.936	0.99	1	1.03	1.04	0.885	1.03	1	0.993	0.901	0.973	0.868	1.09	1.07	0.823	1.12	1.02	1	0.967
PC-14	0.986	0.928	0.756	0.854	0.46	0.434	0.298	0.343	0.411	0.796	0.62	0.589	0.476	0.176	0.186	0.181	0.184	0.184	0.968	0.661
HOP-62	0.903	0.776	0.731	0.779	0.354	0.434	0.5	0.505	0.339	0.683	0.517	0.518	0.429	0.326	0.401	0.337	0.375	0.338	0.835	0.551
NCI-H358	0.432	0.496	0.388	0.432	0.424	0.384	0.303	0.325	0.389	0.504	0.438	0.445	0.402	0.173	0.162	0.162	0.158	0.153	0.45	0.362
SK-MES-1	0.701	0.638	0.501	0.547	0.539	0.468	0.512	0.537	0.421	0.486		0.44	0.368	0.839	0.826	0.825	0.827	0.741	0.662	0.461
NCI-H1666	0.885	0.972	0.926	0.875	0.725	0.779	0.781	0.731	0.823	0.776	0.584	0.496	0.511	0.884	0.859	0.93	0.885	0.825	0.925	0.509
NCI-H1355	0.606	0.477	0.421	0.482	0.486	0.514	0.426	0.536	0.48	0.415	0.309	0.327	0.321	0.747	0.553	0.521	0.502	0.486	0.548	0.277
HCC-827	0.929	0.906	0.828	0.771	0.73	0.672	0.681	0.501	0.645	0.925	0.656	0.682	0.637	0.22	0.251	0.194	0.275	0.243	0.982	0.736
HARA	0.754		0.793	0.845	0.78	0.762	0.86	0.84	0.471	0.564	0.499	0.507	0.412	0.294	0.245	0.26	0.238	0.202	0.847	0.457
HCC-366	0.794	0.873	0.866	0.869	0.337	0.271	0.302	0.27	0.284	0.334	0.251	0.25	0.267	0.339	0.307	0.284	0.216	0.173	0.888	0.231
